Measured values reported in US7307166B1, “Oxpurine nucleosides and their congeners, and acyl, derivatives thereof, for improvement of hematopoiesis” (Wellstat Therapeutics Corporation, priority 1987, dated 2007).

Columns and labels:
Balb/C female mice = test: Hematopoietic recovery after cyclophosphamide in mice (spleen weight, blood cell counts); format: in vivo, mouse
bone marrow cells = test: Colony forming units in bone marrow of mice recovering from cyclophosphamide; format: in vivo, mouse
Procedure: Seventy-two Balb/C female mice weighing approximately 20-grams each were given cyclophosphamide (275 mg/kg) by intraperitoneal (i.p.) injection. Twenty-four hours later and each day thereafter, mice received a 0.4 ml i.p. injection of either physiological saline (control) or palmitoylguanosine (2.5 μmoles/mouse/day in 0.2% Tween 80). On days 3, 5, 7, and 10 following CP administration 6 animals from each group were sacrificed by cervical dislocation, and the left femur of each animal obtained by sterile means. The bone marrow cells were then flushed from the femurs with McCoy's 5a Modified medium using a 23-gauge needle. Cells from femurs in the same group were pooled, dispersed by briefly vortexing, and counted using a hemocytometer. Cell suspensions were added to McCoy's Modified 5a medium containing 15% bovine calf serum, 1× Kanamycin, 0.3% agar, and 3% endotoxin-stimulated serum. […] Each group was plated in quintuplicate. After 7 days in culture (at 37° in 5% CO2 and humidified air) aggregates of 50 cells or more (“colonies”) were counted using a dissecting microscope at 25×.

[1] = tested on: IL-3-dependent bone marrow cells; test: Apoptosis of IL-3-dependent bone marrow cells deprived of IL-3 (trypan blue exclusion); format: cell-based, mouse; conditions: 10 micrograms per milliliter
Procedure: Bone marrow cells were obtained by flushing the femurs of three male B6D2F1 mice. The cells were plated at 5.0×10^5/ml in MEM plus 10% fetal calf serum and 25 Units/ml of recombinant IL-3 for 24-48 hours. Non-adherent cells were then separated from adherent cells and maintained for an additional twelve days. IL-3 washed from cells, and cells were plated in MEM plus 10% fetal calf serum in the presence or absence of IL-3 and with or without the addition of palmitoyldeoxyguanosine (10 micrograms per milliliter) or deoxyguanosine (10 micrograms per milliliter). Cells were counted using the trypan blue exclusion method, and the percent of dead cells (trypan blue positive) was determined at 24, 40, 60 and 84 hours following the wash.

TNF-alpha = test: LPS-induced serum TNF-alpha (ELISA); format: in vivo, mouse
Procedure: (§1) Sixty-three female Balb/C mice were randomly assigned to one of three groups. The animals in one group received a single daily dose of N^2,3′,5′-tripalmitoyldeoxyguanosine (PdG) (25 mg/kg, i.p.), while a second group received a single daily dose of the PdG treatment vehicle (control). The third group was left untreated. On the fourth day 100 μg salmonella typhimurium LPS was administered to all three groups. Serum samples were taken just prior to LPS administration (t=0) and at two, four, six, eight, ten, twelve, sixteen, and twenty hours after LPS administration. The samples were then frozen until the time of assay. Serum levels of TNF-alpha, and IFN-gamma were measured by ELISA.
(§2) In the tables below, units for cytokine concentrations are picograms per ml. A value of 0 indicates cytokine levels below the detection limit of the assay (50 to 100 pg/ml).

IFN-gamma = test: LPS-induced serum interferon-gamma (ELISA); format: in vivo, mouse
Procedure: as §1, §2

[2] = 0 hr after LPS 100 μg, PdG 25 mg/kg i.p. daily before, 0 = below detection limit

In the case of CCCCCCCCCCCCCCCC(=O)OC[C@H]1O[C@@H](n2cnc3c(=O)[nH]c(N)nc32)[C@H](O)[C@@H]1O, the spleen weight (Balb/C female mice; Ex 38: day 7 after CP, guanosine 5, acyl derivatives 2.5 μmoles/mouse/day in 0.2% Tween 80 i.p. 6 days, Tween 80 0.2%) is reported as “significantly larger spleens”, the total neutrophils (Balb/C female mice; Ex 41: day 7 after CP, treatment on only days 1 and 2, vs saline or Tween 80) is reported as “significant increase” and the platelet number (Balb/C female mice; Ex 47: day 10 after CP, 2.5 μmoles/mouse/day) is reported as “significantly greater”. The “colony-forming units per femur” value (bone marrow cells; Day 3 after CP, 2.5 μmoles/mouse/day in 0.2% Tween 80 i.p.) was 645 ± 26, the “colony-forming units per femur” value (bone marrow cells; Day 5 after CP, 2.5 μmoles/mouse/day) was 2327 ± 121 and the “colony-forming units per femur” value (bone marrow cells; Day 7 after CP, 2.5 μmoles/mouse/day) was 1328 ± 140. The “colony-forming units per femur” value (bone marrow cells; Day 10 after CP, 2.5 μmoles/mouse/day) was 647 ± 25.
In the case of CCCCCCCCCCCCCCCC(=O)Nc1nc2c(ncn2[C@H]2C[C@H](OC(=O)CCCCCCCCCCCCCCC)[C@@H](COC(=O)CCCCCCCCCCCCCCC)O2)c(=O)[nH]1 [PdG, 3′,5′-O-N^2-tripalmitoyl-2′-deoxyguanosine], the “% Dead Cells” value ([1]; 40 hr after IL-3 wash) is reported as 18.0 ± 3.0 %, the “% Dead Cells” value ([1]; 60 hr after IL-3 wash) is reported as 16.0 ± 1.5 % and the “% Dead Cells” value ([1]; 84 hr after IL-3 wash) is reported as 15.3 ± 5.5 %. The “serum TNF-alpha” value (TNF-alpha; [2]) was 0 picograms per ml, the “serum TNF-alpha” value (TNF-alpha; 2 hr after LPS) was 1509 ± 86 picograms per ml and the “serum TNF-alpha” value (TNF-alpha; 4 hr after LPS) was 529 ± 141 picograms per ml. For the same compound, the “serum TNF-alpha” value (TNF-alpha; 6 hr after LPS) was 486 ± 63 picograms per ml, the “Peak TNF-alpha levels vs control groups” value (TNF-alpha; PdG 25 mg/kg i.p.) was “four-fold lower” and the serum interferon-gamma (IFN-gamma; [2]) was 0 picograms per ml. The serum interferon-gamma (IFN-gamma; 2 hr after LPS, 0 = below detection limit) was 0 picograms per ml, the serum interferon-gamma (IFN-gamma; 4 hr after LPS) was 825 ± 248 picograms per ml and the serum interferon-gamma (IFN-gamma; 8 hr after LPS) was 2129 ± 454 picograms per ml. It also gave a serum interferon-gamma (IFN-gamma; 10 hr after LPS) of 911 ± 279 picograms per ml, a serum interferon-gamma (IFN-gamma; 12 hr after LPS, 0 = below detection limit) of 0 picograms per ml and a serum interferon-gamma (IFN-gamma; 16 hr after LPS, 0 = below detection limit) of 0 picograms per ml. For the same compound, the serum interferon-gamma (IFN-gamma; 20 hr after LPS, 0 = below detection limit) was 0 picograms per ml, the “area under the curve (AUC) over the entire time course” value (IFN-gamma; PdG 25 mg/kg i.p.) was “significantly lower” and the “peak IFN-gamma levels vs control values” (IFN-gamma; PdG 25 mg/kg i.p.) was “five- to seven-fold lower”.
